In US10071968B2 (priority 2014, dated 2018):

Target: human σ1 receptor (Homo sapiens, UniProt Q99720)
Test: Human σ1 receptor radioligand assay ([3H](+)-pentazocine, transfected HEK-293 membranes)
Type: binding
Design: μ and σ1 dual binding: key to the marks not given beside the values
Conditions: one combined class for Ki-σ1 (A1) and Ki-μ (human μ-opioid receptor, A2); for Ki: read-out: μ and σ1 dual binding
Experimental: To investigate binding properties of test compounds to human σ1 receptor, transfected HEK-293 membranes and [^3H](+)-pentazocine (Perkin Elmer, NET-1056), as the radioligand, were used. The assay was carried out with 7 μg of membrane suspension, 5 nM of [^3H](+)-pentazocine in either absence or presence of either buffer or 10 μM Haloperidol for total and non-specific binding, respectively. Binding buffer contained Tris-HCl 50 mM at pH 8. Plates were incubated at 37° C. for 120 minutes. After the incubation period, the reaction mix was then transferred to MultiScreen HTS, FC plates (Millipore), filtered and plates were washed 3 times with ice-cold 10 mM Tris-HCL (pH7.4). Filters were dried and counted at approximately 40% efficiency in a MicroBeta scintillation counter (Perkin-Elmer) using EcoScint liquid scintillation cocktail

Chain of human σ1 receptor (Q99720 whole entry): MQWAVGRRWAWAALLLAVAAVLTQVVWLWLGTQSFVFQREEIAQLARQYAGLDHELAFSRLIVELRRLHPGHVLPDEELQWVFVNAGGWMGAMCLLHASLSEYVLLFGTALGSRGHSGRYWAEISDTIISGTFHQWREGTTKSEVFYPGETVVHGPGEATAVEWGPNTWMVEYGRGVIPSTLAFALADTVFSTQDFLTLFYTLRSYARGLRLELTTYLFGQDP

Row | Structure (SMILES) | μ and σ1 dual binding | Ki [nM]
1 | CN(CCO[C@H](c1ccccc1)c1ccnn1C)Cc1ccc(F)cc1 [Example 10, (R)-N-(4-fluorobenzyl)-N-methyl-2-((1-methyl-1H-pyrazol-5-yl)(phenyl)methoxy)ethanamine] | ++ | –
2 | CN(CCO[C@H](c1ccccc1)c1ccnn1C)CCc1ccccc1 [Example 11, (R)-N-methyl-2-((1-methyl-1H-pyrazol-5-yl)(phenyl)methoxy)-N-phenethylethanamine] | ++ | –
3 | CN(CCOC(c1ccc(O)cc1)c1ccnn1C)Cc1ccccc1 (stereo not shown) [Example 51, 4-((2-(benzyl(methyl)amino)ethoxy)(1-methyl-1H-pyrazol-5-yl)methyl)phenol] | ++ | –
4 | CN(CC[S+]([O-])C(c1ccccc1)c1ccnn1C)Cc1ccccc1 (stereo not shown) [Example 34, N-Benzyl-N-methyl-2-((1-methyl-1H-pyrazol-5-yl)(phenyl)methylsulfinyl)ethanamine] | – | > 500
5 | CN(CCOC(c1cccnc1)c1ccnn1C)Cc1cccc(F)c1 (stereo not shown) [Example 46, N-(3-fluorobenzyl)-N-methyl-2-((1-methyl-1H-pyrazol-5-yl)(pyridin-3-yl)methoxy)ethanamine] | ++ | –
6 | CN(CCO[C@H](c1ccccc1)c1ccnn1C)Cc1ccccc1 [Example 9, (R)-N-benzyl-N-methyl-2-((1-methyl-1H-pyrazol-5-yl)(phenyl)methoxy)ethanamine] | ++ | –
7 | CN(CCOC(c1cncs1)c1ccnn1C)Cc1ccccc1 (stereo not shown) [Example 41, N-benzyl-N-methyl-2-((1-methyl-1H-pyrazol-5-yl)(thiazol-5-yl)methoxy)ethanamine] | – | > 500
8 | CC(C)N(CCOC(c1ccccc1)c1ccnn1C)Cc1ccccc1 (stereo not shown) [Example 27, N-benzyl-N-(2-((1-methyl-1H-pyrazol-5-yl)(phenyl)methoxy)ethyl)propan-2-amine] | ++ | –
9 | CN(CCOC(c1ccccc1O)c1ccnn1C)Cc1ccccc1 (stereo not shown) [Example 52, 2-((2-(benzyl(methyl)amino)ethoxy)(1-methyl-1H-pyrazol-5-yl)methyl)phenol] | – | < 500
10 | COc1ccccc1C(OCCN(C)Cc1cccc(F)c1)c1ccnn1C (stereo not shown) [Example 48, N-(3-fluorobenzyl)-2-((2-methoxyphenyl)(1-methyl-1H-pyrazol-5-yl)methoxy)-N-methylethanamine] | ++ | –
11 | CN(CCOC(c1ccccc1)c1ccnn1C)Cc1ccc(F)cc1 (stereo not shown) [Example 8, N-(4-fluorobenzyl)-N-methyl-2-((1-methyl-1H-pyrazol-5-yl)(phenyl)methoxy)ethanamine] | ++ | –
12 | CN(CCOC(c1ccccn1)c1ccnn1C)Cc1ccccc1 (stereo not shown) [Example 40, N-benzyl-N-methyl-2-((1-methyl-1H-pyrazol-5-yl)(pyridin-2-yl)methoxy)ethanamine] | – | > 500
13 | CC(c1ccccc1)N(C)CCOC(c1ccccc1)c1ccnn1C (stereo not shown) [Example 16, N-methyl-2-((1-methyl-1H-pyrazol-5-yl)(phenyl)methoxy)-N-(1-phenylethyl)ethanamine] | ++ | –
14 | Cc1ccsc1[C@@H](OCCN(C)Cc1ccccc1)c1ccnn1C [Example 30, (S)-N-benzyl-N-methyl-2-((1-methyl-1H-pyrazol-5-yl)(3-methylthiophen-2-yl)methoxy)ethanamine] | ++ | –
15 | CN(CCO[C@@H](c1ccccc1)c1ccnn1C)CCc1ccccc1 [Example 19, (S)-N-methyl-2-((1-methyl-1H-pyrazol-5-yl)(phenyl)methoxy)-N-phenethylethanamine] | – | < 500
16 | CN(CCOC(c1ccccc1)c1ccnn1C)Cc1ccc(C(F)(F)F)nc1 (stereo not shown) [Example 3, N-methyl-2-((1-methyl-1H-pyrazol-5-yl)(phenyl)methoxy)-N-((6-(trifluoromethyl)pyridin-3-yl)methyl)ethanamine] | – | > 500
17 | CN(CCOC(c1cncs1)c1ccnn1C)Cc1cccc(F)c1 (stereo not shown) [Example 49, N-(3-fluorobenzyl)-N-methyl-2-((1-methyl-1H-pyrazol-5-yl)(thiazol-5-yl)methoxy)ethanamine] | ++ | –
18 | COc1ccccc1C(OCCN(C)Cc1ccccc1)c1ccnn1C (stereo not shown) [Example 39, N-benzyl-2-((2-methoxyphenyl)(1-methyl-1H-pyrazol-5-yl)methoxy)-N-methylethanamine] | ++ | –
19 | CN(CCOC(c1ccccc1)c1ccnn1C)CCc1ccccc1 (stereo not shown) [Example 7, N-methyl-2-((1-methyl-1H-pyrazol-5-yl)(phenyl)methoxy)-N-phenethylethanamine] | – | < 500
20 | CC(C)N(CCOC(c1ccccc1)c1ccnn1C)Cc1cccc(F)c1 (stereo not shown) [Example 29, N-(3-fluorobenzyl)-N-(2-((1-methyl-1H-pyrazol-5-yl)(phenyl)methoxy)ethyl)propan-2-amine] | ++ | –
21 | CN(CCSC(c1ccccc1)c1ccnn1C)Cc1ccccc1 (stereo not shown) [Example 33, N-benzyl-N-methyl-2-((1-methyl-1H-pyrazol-5-yl)(phenyl)methylthio)ethanamine] | – | < 500
22 | COc1cccc(CN(C)CCOC(c2ccccc2)c2ccnn2C)c1 (stereo not shown) [Example 23, N-(3-methoxybenzyl)-N-methyl-2-((1-methyl-1H-pyrazol-5-yl)(phenyl)methoxy)ethanamine] | ++ | –
